Experimental findings from ChEMBL document CHEMBL5137064, “Therapeutic Potential and Activity Modulation of the Protein Lysine Deacylase Sirtuin 5” (J Med Chem, 2022) are described below.

Broadly, the IC50 is the midpoint of a concentration-inhibition curve.

Each structure is given as a SMILES string. *1 amine or outer side, *2 acyl side, *3 side chain or, on linkers, in order; H or OH if unused. Where a SMILES comes first, the peptide text is derived from it. Bridges are numbered along the chain shown (N, C = ends). [ ]: non-standard residue; d: D form. X1 = O=C(O)CCNC(=S)NCCCC[C@H](N[*:1])C(=O)[*:2]; Heptanedioyl = O=C(CCCCCC(=O)[*:2])[*:1] Where only a bound is given, the exact number is not on record here.

Test [1] has as its target T1, NAD-dependent protein deacetylase sirtuin-2 (Homo sapiens, UniProt Q8IXJ6).
T1 sequence (Q8IXJ6 whole entry): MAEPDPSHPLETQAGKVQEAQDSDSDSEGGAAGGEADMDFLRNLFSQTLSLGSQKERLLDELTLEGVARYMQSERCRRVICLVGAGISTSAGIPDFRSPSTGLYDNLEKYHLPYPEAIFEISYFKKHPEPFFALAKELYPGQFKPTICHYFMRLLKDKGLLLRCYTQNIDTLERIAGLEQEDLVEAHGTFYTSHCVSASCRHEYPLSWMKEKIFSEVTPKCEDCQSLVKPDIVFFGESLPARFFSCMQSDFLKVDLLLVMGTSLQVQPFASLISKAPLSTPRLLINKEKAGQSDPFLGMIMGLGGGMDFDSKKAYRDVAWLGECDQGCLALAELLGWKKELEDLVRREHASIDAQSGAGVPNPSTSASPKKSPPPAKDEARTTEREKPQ
The experiment in a line: Inhibition of recombinant SIRT2 (unknown origin) using […] as substrate incubated for 4 hrs by homogenous fluorescent deacetylase assay.

The target in test [2] is NAD-dependent protein deacylase sirtuin-5, mitochondrial (Homo sapiens, UniProt Q9NXA8). The experiment in a line: Inhibition of GST-tagged SIRT5 desuccinylase activity (unknown origin) incubated for 5 mins by HPLC based assay.
For test [3], the target named is T1, NAD-dependent protein deacetylase sirtuin-2. The experiment in a line: Inhibition of His6-tagged SIRT2 (unknown origin) desuccinylase activity incubated for 12 mins by HPLC based assay.
In test [4] the target is NAD-dependent protein deacylase sirtuin-6 (Homo sapiens, UniProt Q8N6T7). The experiment in a line: Inhibition of His6-tagged SIRT6 (unknown origin) desuccinylase activity incubated for 12 mins by HPLC based assay.
For test [5], the target named is T2, NAD-dependent protein deacetylase sirtuin-1 (Homo sapiens, UniProt Q96EB6).
T2 sequence (Q96EB6 whole entry): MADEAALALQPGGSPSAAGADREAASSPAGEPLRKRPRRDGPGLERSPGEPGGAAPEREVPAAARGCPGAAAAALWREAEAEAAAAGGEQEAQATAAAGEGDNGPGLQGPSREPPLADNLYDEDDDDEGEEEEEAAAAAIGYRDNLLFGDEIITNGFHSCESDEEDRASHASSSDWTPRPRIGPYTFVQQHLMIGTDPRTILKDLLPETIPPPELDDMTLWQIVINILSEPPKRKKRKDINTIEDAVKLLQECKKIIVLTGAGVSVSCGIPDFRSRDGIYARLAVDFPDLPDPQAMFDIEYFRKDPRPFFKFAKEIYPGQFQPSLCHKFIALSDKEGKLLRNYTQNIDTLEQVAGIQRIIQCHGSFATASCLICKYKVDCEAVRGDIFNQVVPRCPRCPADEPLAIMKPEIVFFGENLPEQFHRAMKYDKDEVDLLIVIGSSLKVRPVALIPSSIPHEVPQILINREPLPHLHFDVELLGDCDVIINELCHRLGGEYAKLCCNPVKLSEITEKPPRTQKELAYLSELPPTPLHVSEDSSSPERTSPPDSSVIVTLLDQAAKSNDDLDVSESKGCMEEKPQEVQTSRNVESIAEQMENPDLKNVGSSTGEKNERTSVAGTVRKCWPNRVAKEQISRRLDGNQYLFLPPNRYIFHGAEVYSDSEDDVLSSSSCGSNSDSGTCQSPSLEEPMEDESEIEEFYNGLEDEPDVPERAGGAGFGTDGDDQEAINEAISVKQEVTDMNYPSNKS
The test is described as follows: Inhibition of His6-tagged SIRT1 (unknown origin) desuccinylase activity incubated for 10 mins by HPLC based assay.

Test [6] has as its target T3, NAD-dependent protein deacetylase sirtuin-3, mitochondrial (Homo sapiens, UniProt Q9NTG7).
T3 sequence (Q9NTG7 whole entry): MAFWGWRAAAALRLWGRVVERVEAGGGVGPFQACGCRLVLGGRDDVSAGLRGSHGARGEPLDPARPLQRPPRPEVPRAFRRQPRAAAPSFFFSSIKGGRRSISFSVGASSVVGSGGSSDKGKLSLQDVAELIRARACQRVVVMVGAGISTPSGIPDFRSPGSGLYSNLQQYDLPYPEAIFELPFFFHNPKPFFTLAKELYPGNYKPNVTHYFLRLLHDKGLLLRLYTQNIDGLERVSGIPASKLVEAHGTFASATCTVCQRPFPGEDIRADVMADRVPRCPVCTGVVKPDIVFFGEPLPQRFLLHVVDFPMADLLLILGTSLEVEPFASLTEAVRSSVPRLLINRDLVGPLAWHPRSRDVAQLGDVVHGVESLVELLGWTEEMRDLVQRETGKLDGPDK
The test is described as follows: Inhibition of His6-tagged SIRT3 (unknown origin) desuccinylase activity incubated for 10 mins by HPLC based assay.

Test [7] can be described thus: Cytotoxicity against human PDAC cells assessed as cell viability. It counts as functional, cell-based.

Chain of NAD-dependent protein deacylase sirtuin-6 (Q8N6T7 whole entry): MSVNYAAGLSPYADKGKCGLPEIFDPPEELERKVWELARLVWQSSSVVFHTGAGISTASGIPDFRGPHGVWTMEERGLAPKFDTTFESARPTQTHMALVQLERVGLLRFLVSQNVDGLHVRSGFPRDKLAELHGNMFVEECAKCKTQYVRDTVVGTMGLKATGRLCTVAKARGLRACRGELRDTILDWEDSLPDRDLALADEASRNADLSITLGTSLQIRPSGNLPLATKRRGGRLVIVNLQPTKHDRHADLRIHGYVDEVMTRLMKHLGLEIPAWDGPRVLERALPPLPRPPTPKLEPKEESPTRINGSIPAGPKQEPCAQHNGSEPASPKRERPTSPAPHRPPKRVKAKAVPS
Chain of NAD-dependent protein deacylase sirtuin-5, mitochondrial (Q9NXA8 whole entry): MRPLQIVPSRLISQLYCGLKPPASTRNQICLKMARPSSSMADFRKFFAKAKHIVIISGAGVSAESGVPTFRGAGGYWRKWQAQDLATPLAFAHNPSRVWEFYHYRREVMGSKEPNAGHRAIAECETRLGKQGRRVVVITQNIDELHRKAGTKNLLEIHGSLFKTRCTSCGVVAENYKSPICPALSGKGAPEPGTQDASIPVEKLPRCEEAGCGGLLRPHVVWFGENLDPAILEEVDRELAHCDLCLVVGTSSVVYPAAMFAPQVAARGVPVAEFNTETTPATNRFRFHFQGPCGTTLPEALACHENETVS

`Cc1ccc(C(=O)Nc2ccc(S(=O)(=O)O)c3cc(S(=O)(=O)O)cc(S(=O)(=O)O)c23)cc1NC(=O)c1cccc(NC(=O)Nc2cccc(C(=O)Nc3cc(C(=O)Nc4ccc(S(=O)(=O)O)c5cc(S(=O)(=O)O)cc(S(=O)(=O)O)c45)ccc3C)c2)c1` [SURAMIN]: in test [1], the IC50 was 1.15 µM.

For the compound `CC(=O)N[C@H]1CCCCNC(=O)CCCCCC(=O)NCCCC[C@@H](C(=O)N[C@H](C(N)=O)[C@@H](C)O)NC(=O)[C@H](CCCCNC(=S)NCCC(=O)O)NC(=O)[C@H](CCCNC(=N)N)NC1=O` (Ac-KR[X1]KT-NH2; linker 1-4 via Heptanedioyl), the IC50 in test [2] was 7.5 µM; in test [3], above 1000 µM; in test [4], above 1000 µM; in test [5], above 1000 µM; in test [6] it was above 1000 µM.

For the compound `CCOC(=O)C1=CN(C(=O)c2ccccc2)C=C(C(=O)OCC)C1c1cccc(OC)c1`, the 50% inhibitory concentration (IC50) in test [7] was found to be 25.4 µM.
